# Measured values from patent US20050260630A1, “Rapid methods for detecting methylation of a nucleic acid molecule” (Michigan State University, priority 2004, published 2005).
# Tests used:
# H4IIE rat hepatoma cells = experiment: Global DNA methylation by SssI methylase assay in treated H4IIE cells; conditions: 72 hour incubation
# [1] = Systolic blood pressure of DOCA-treated uninephrectomized rats; type: in vivo, rat; conditions: male Sprague-Dawley rats, uninephrectomy, pellet 200 mg/kg, water with 1.0% NaCl and 0.2% KCl; at 28 days (control 112 mmHg)
# Method: Hypertensive rats were created by subjecting male Sprague-Dawley rats, weighing […] uninephrectomy and implanting them with a deoxycorticosterone acetate (DOCA) pellet (200 mg/kg). […] Aortas were removed 28 days after implantation of the DOCA pellet.
# [2] = tested on: GC-rich regions of liver genomic DNA; experiment: GC-rich region methylation following phenobarbital treatment of B6C3F1 mice (AP-PCR and capillary electrophoresis, RsaI/HpaII and RsaI/MspI digests); type: in vivo; conditions: B6C3F1 mouse liver
# [3] = tested on: genomic DNA from liver cells (GC-rich regions, 5′CCGG 3′ sites); experiment: Arbitrarily primed PCR and capillary electrophoresis methylation analysis of liver DNA of phenobarbital-treated C57BL/6 mice (RsaI/HpaII digest); conditions: 0.05% (w/v) in drinking water for 2 weeks
# [4] = H4IIE cells treated with cytolethal concentrations
# [5] = H4IIE cells treated with non-cytolethal concentrations
# [6] = HpaII digest, 0.05% (w/v) in drinking water, 2 weeks
# [7] = MspI digest, 0.05% (w/v) in drinking water, 2 weeks
# [8] = Total of HpaII and MspI digests, 0.05%
smiles,measurement,setting,value
"O=c1[nH]cc(F)c(=O)[nH]1 [5-FU, 5-fluorouracil]",global DNA methylation status,H4IIE rat hepatoma cells; [4],decrease in global DNA methylation status
"CC(=O)OCC(=O)[C@H]1CC[C@H]2[C@@H]3CCC4=CC(=O)CC[C@]4(C)[C@H]3CC[C@]12C [DOCA, deoxycorticosterone acetate]",systolic blood pressure,[1],180 mmHg
"Nc1ncn([C@H]2C[C@H](O)[C@@H](CO)O2)c(=O)n1 [dAzaC, 5-aza-2′deoxycytidine]",global DNA methylation status,H4IIE rat hepatoma cells; [5],decrease in global DNA methylation status
CCC1(c2ccccc2)C(=O)NC(=O)NC1=O [phenobarbital],Sites of Hypermethylation,[2]; [6],10 sites
same,Sites of Hypomethylation,[2]; [6],5 sites
same,Sites of “New” Methylation,[2]; [6],11 sites
same,TOTAL altered sites,[2]; [6],26 sites
same,Sites of Hypermethylation,[2]; [7],8 sites
same,Sites of Hypomethylation,[2]; [7],8 sites
same,Sites of “New” Methylation,[2]; [7],11 sites
same,TOTAL altered sites,[2]; [7],27 sites
same,Sites of Hypermethylation,[2]; [8],18 sites
same,Sites of Hypomethylation,[2]; [8],13 sites
same,Sites of “New” Methylation,[2]; [8],22 sites
same,TOTAL altered sites,[2]; [8],53 sites
same,sites in murine liver DNA where treatment has affected methylation status,[3]; C57BL/6 mice,10 sites
same,Sites of Hypermethylation,"[3]; liver DNA of male C57BL/6 mice, t-test α=0.05",8 sites
"CN[C@@H]1C[C@H]2O[C@@](C)([C@@H]1OC)n1c3ccccc3c3c4c(c5c6ccccc6n2c5c31)C(=O)NC4 [staurosporine, Staurosporine]",global DNA methylation status,H4IIE rat hepatoma cells; [4],decrease in global DNA methylation status
same,global DNA methylation status,H4IIE rat hepatoma cells; [5],decrease in global DNA methylation status
